Entries after “also recorded” stand apart in the source; their conditions may differ.
Columns and labels:
[1] = test system: paternal UBE3A; experiment: Western blot of UBE3A protein (anti-Ube3a) in AS model (Ube3a^m-/p+) cortical neurons; format: cell-based, mouse; conditions: 72 hr; Topotecan 0.3 μM, PHA533533 1.0 μM, Compound X 0.5 μM, Compound Y 0.5 μM; versus DMSO-treated WT neurons
Experimental: (§1) Cell culture and drug treatment: Primary cortical neurons were isolated and cultured by following established protocol. Briefly, cortical neurons were isolated from embryos (E13.5-15.5) carrying paternal Ube3a-YFP (Ube3a^m+/pYFP) or maternal deletion of Ube3a (Ube3a^m−/p+). Isolated cortical neurons were plated onto 384-well plates coated with poly-D-lysine (2.0×10^4 cell/well) for high-content imaging analysis or 6-well plates coated with poly-D-lysine (1.0×10^6 cells/well) for molecular and biochemical assays (western blot analysis, quantitative RT-PCR, and shRNA knockdown). Cultured neurons were maintained for 7 days, replacing medium every 3-4 days. On day 7 (DIV 7), the indicated compounds were added at 0.3-1 μM to neurons for 72 hr to unsilence paternal Ube3a or Ube3a-YFP.
shRNA knockdown and western blot analysis: Lentiviral shRNAs of Top1 (TRCN0000011884), CDK2 (TRCN0000023146), and CDK5 (TRCN0000009520) were generated using previously described techniques. Cultured cortical neurons were infected at DIV 3 and virus was removed the next day (DIV 4). […] Following secondary antibody incubation, the membranes were rinsed (4-5 times) with 1×TBS-T at room temperature for 1 hr and ECL (Bio-Rad) was used to visualize detected proteins using an Amersham Imager 600 (AI600, GE Life Sciences).

[2] = test system: Snrpn; experiment: Quantitative RT-PCR of Snrpn mRNA in cultured cortical neurons; format: cell-based, mouse; conditions: qPCR normalized to β-actin, after drug treatment
Experimental: as §1
(§2) Quantitative real-time PCR and topoisomerase-based DNA relaxation assay: Quantitative real-time PCR (qPCR) was performed using previously reported protocols. Briefly, total RNA was extracted from cultured cortical neurons carrying Ube3a^m+/pYFP after drug treatment using Direct-zol RNA kit (Zymo Research). cDNA pool was synthesized using 2 μg of total RNA and qScript cDNA Supermix (Quantabio). qPCR was performed using SsoAdvanced Universal SYBR green Supermix (Bio-rad). […] Relative quantity (RQ) was calculated after normalized ΔΔCt was calculated. […]

[3] = target: T1, Top2a (Homo sapiens, UniProt P11388); experiment: Topoisomerase-based DNA relaxation assay, Top2a (kDNA decatenation); format: biochemical; conditions: catenated versus decatenated kDNA on agarose gel
T1 construct: purchased TopoGEN
Experimental: Quantitative real-time PCR and topoisomerase-based DNA relaxation assay: Quantitative real-time PCR (qPCR) was performed using previously reported protocols. Briefly, total RNA was extracted from cultured cortical neurons carrying Ube3a^m+/pYFP after drug treatment using Direct-zol RNA kit (Zymo Research). cDNA pool was synthesized using 2 μg of total RNA and qScript cDNA Supermix (Quantabio). qPCR was performed using SsoAdvanced Universal SYBR green Supermix (Bio-rad). The primer sets were β-actin (forward, 5′-[…]-3′, SEQ ID NO:1; reverse, 5′-[…]-3, SEQ ID NO:2), YFP (forward, 5′-[…]-3′, SEQ ID NO:3; reverse, 5′-[…]-3′, SEQ ID NO:4), Ube3a-ATS (forward, 5′-[…]-3′, SEQ ID NO:5; reverse, 5′-[…]-3′, SEQ ID NO:6), Snrpn (forward, 5′-[…]-3′, SEQ ID NO:7; reverse, 5′-[…]-3′, SEQ ID NO:8), and Snord116 (forward, 5′-[…]-3′, SEQ ID NO:9; reverse, 5′-[…]-3′, SEQ ID NO:10). qPCR was performed using QuantStudio thermocycler (Thermo Fisher) with the following conditions: 95° C. for 5 min and followed by 40 cycles of 95° C. 10 sec, 60° C. 1 min. Relative quantity (RQ) was calculated after normalized ΔΔCt was calculated. Topoisomerase (Top)-based DNA relaxation assays were performed to test whether the drugs inhibited Top1, Top2a, and Top2b. Top1 and Top2a assay kits were purchased from TopoGEN, and Top2b enzyme was purchased from Inspiralis. All Top-based assays followed manufacturer protocols.

[4] = test system: Snord116; experiment: Quantitative RT-PCR of Snord116 mRNA in cultured cortical neurons; format: cell-based, mouse; conditions: qPCR normalized to β-actin, after drug treatment
Experimental: as §1, §2

[5] = test system: paternal Ube3a-YFP; experiment: High-content imaging of paternal UBE3A-YFP in cultured cortical neurons (GFP antibody-enhanced fluorescence); format: cell-based, mouse; conditions: for percent of neurons expressing UBE3A-YFP above threshold: cultured mouse cortical neurons, 72 hr treatment, n=4, DMSO control 0.03±0.004%; for unsilencing of paternal Ube3a-YFP by imaging, in words: library screen at 1 μM or dose response, 72 hr
Experimental: as §1
Fluorescence immunocytochemistry and high content imaging analysis: Fluorescent immunocytochemistry and high content imaging analysis were performed by following previously described protocols with slight modifications. After 72 hr drug treatment, the neurons were fixed with 4% paraformaldehyde in 1×PBS at room temperature for 10 min. After brief washing with 1×PBS three times, neurons were permeabilized with 1% Triton-X 100 in 1×PBS at room temperature for 15 min, followed by blocking with 5% normal goat serum in 0.1% Triton-X 100 in 1×PBS at room temperature. 60 min after blocking, neurons were incubated with primary antibody, rabbit anti-GFP (1:1000, Novus Biologicals), at 4° C. overnight. Neurons were then briefly washed with 1×PBS followed by incubation with secondary antibody, goat anti-rabbit Alexa Fluor 488 (1:500, Thermo Fisher/Invitrogen) and Hoechst 33342 (Thermo Fisher), at room temperature for 60 min. Following secondary antibody incubation, neurons were washed with 1×PBS and fluorescent images were acquired using a BD Pathway 855 bioimager. All acquired images were analyzed by CellProfiler.
Fluorescence immunocytochemistry and high content imaging analysis: After 72-hour drug treatment, the neurons were fixed with 4% paraformaldehyde in phosphate-buffered saline (PBS) at room temperature for 10 min. After brief washing with PBS three times, neurons were permeabilized with 1% Triton-X 100 in PBS at room temperature for 10 min, followed by blocking with 5% normal goat serum in 0.1% Triton-X 100 in 1×PBS at room temperature. 30 min after blocking, neurons were incubated with primary antibodies rabbit anti-GFP (1:1000, NB 600308, Novus Biologicals) and mouse anti-NeuN (1:500, MAB 377, Millipore) at 4° C. overnight. Neurons were then briefly washed with 1×PBS followed by incubation with secondary antibodies goat anti-rabbit Alexa Fluor 488 (1:500, A11008, Thermo Fisher/Invitrogen) and anti-mouse Alexa Fluor 568 (1:500, A21124, ThermoFisher/Invitrogen) together with DAPI (4′,6-diamidino-2-phenylindole) at room temperature for 60 min. Following secondary antibody incubation, neurons were washed with 1×PBS and fluorescent images were acquired using Nikon Ti2 eclipse fluorescent microscope (Nikon Instruments Inc., Melville, NY, USA). Antibody-enhanced UBE3A-YFP fluorescence intensities were determined from DAPI and NeuN double-positive individual neurons in drug-treated wells and normalized to neurons in untreated wells. All acquired images were analyzed by Nikon NIS-Elements software (Nikon Instruments Inc., Melville, NY, USA). Sigmoidal curve fitting for the dose response analysis was performed using GraphPad Prism software version 8.0 (GraphPad Software, La Jolla, CA, USA). The calculated EC50 values (potencies) and Y value top plateau (estimated efficacies) enables comparative analyses of the relative potency and efficacy of the identified compounds.

[6] = test system: paternal Ube3a-YFP; experiment: Western blot of UBE3A-YFP protein (anti-GFP) in Ube3a^m+/pYFP cortical neurons; format: cell-based, mouse; conditions: Topotecan 0.3 μM, PHA533533 1.0 μM; for UBE3A-YFP protein from the paternal allele (western blot): 72 hr, Compound X 0.5 μM, Compound Y 0.5 μM, EPZ5676 3 μM, EPZ5676 1 μM with P5-A4 1 μM, analogues 1 μM; for unsilencing of paternal Ube3a-YFP with CDK2 knocked down: CDK2 shRNA knockdown; for unsilencing of paternal Ube3a-YFP with CDK5 knocked down: CDK5 shRNA knockdown
Experimental: Cultured cortical neurons were infected at DIV 3 and virus was removed the next day (DIV 4). Neurons were further cultured and treated at DIV 10 with vehicle (0.1% DMSO) or the indicated compounds. To perform western blot analysis, the cultured neurons from 6-well plates were harvested and total protein was extracted with protein extraction buffer 72 hr after drug treatment, Bradford assays were performed to measure protein concentration, and 30 μg of total protein was loaded for Bis-polyacrylamide gel electrophoresis (Bio-Rad). Electrophoresed proteins were transferred to nitrocellulose membrane (0.45 μm, Bio-Rad). Membranes were blocked with 5% non-fat milk in 1×TBS-T at room temperature for 30 min followed by overnight 4° C. incubation with primary antibodies [rabbit anti-GFP (1:1000, Novus Biologicals), rabbit anti-Ube3a (1:1000, Bethyl Lab), rabbit anti-H3K79Me2 (1:1000, Abcam), rabbit anti-H3K79Me3 (1:1000, Abcam), and mouse anti-β-actin (1:5000, Sigma)]. The next day, the immunoblot membranes were rinsed with 1×TBS-T three times and incubated with HPR-conjugated secondary antibodies for 1 hr at room temperature (goat anti-rabbit @ 1:1000 or goat anti-mouse @ 1:1000, Vector Labs). Following secondary antibody incubation, the membranes were rinsed (4-5 times) with 1×TBS-T at room temperature for 1 hr and ECL (Bio-Rad) was used to visualize detected proteins using an Amersham Imager 600 (AI600, GE Life Sciences).

[7] = test system: DOT1L; experiment: Western blot of H3K79 methylation (anti-H3K79me2, anti-H3K79me3) in cortical neurons; format: cell-based, mouse; conditions: PHA533533 1.0 μM, Compound X 0.5 μM, EPZ5676 3 μM
Source text: shRNA knockdown and western blot analysis: Lentiviral shRNAs of Top1 (TRCN0000011884), CDK2 (TRCN0000023146), and CDK5 (TRCN0000009520) were generated using previously described techniques. Cultured cortical neurons were infected at DIV 3 and virus was removed the next day (DIV 4). Neurons were further cultured and treated at DIV 10 with vehicle (0.1% DMSO) or the indicated compounds. To perform western blot analysis, the cultured neurons from 6-well plates were harvested and total protein was extracted with protein extraction buffer 72 hr after drug treatment, Bradford assays were performed to measure protein concentration, and 30 μg of total protein was loaded for Bis-polyacrylamide gel electrophoresis (Bio-Rad). Electrophoresed proteins were transferred to nitrocellulose membrane (0.45 μm, Bio-Rad). Membranes were blocked with 5% non-fat milk in 1×TBS-T at room temperature for 30 min followed by overnight 4° C. incubation with primary antibodies [rabbit anti-GFP (1:1000, Novus Biologicals), rabbit anti-Ube3a (1:1000, Bethyl Lab), rabbit anti-H3K79Me2 (1:1000, Abcam), rabbit anti-H3K79Me3 (1:1000, Abcam), and mouse anti-β-actin (1:5000, Sigma)]. […] Following secondary antibody incubation, the membranes were rinsed (4-5 times) with 1×TBS-T at room temperature for 1 hr and ECL (Bio-Rad) was used to visualize detected proteins using an Amersham Imager 600 (AI600, GE Life Sciences).

[8] = test system: Ube3a-ATS; experiment: Quantitative RT-PCR of Ube3a-ATS mRNA in cultured cortical neurons; format: cell-based, mouse; conditions: qPCR normalized to β-actin, after drug treatment
Experimental: as §1, §2

[9] = test system: Ube3a-YFP mRNA; experiment: Quantitative RT-PCR of Ube3a-YFP mRNA in cultured cortical neurons; format: cell-based, mouse; conditions: qPCR normalized to β-actin, after drug treatment
Experimental: as §1, §2

[10] = test system: cultured mouse cortical neurons; format: cell-based
Experimental: Cytotoxicity test: Cytotoxicity of drugs was tested in cultured mouse cortical neurons in vitro. The manufacturer's protocol was followed to measure luminescence proportional to the number of dead cells using Cyto Tox-Glo assay (Promega). 72 hr after drug treatment, AAF-Glo substrates were directed added to the drug-treated (or 0.1% DMSO vehicle-treated) cortical neurons and incubated them at room temperature for 15 min. Luminescence produced by dead-cell protease activity was then measured.

T1 sequence (P11388 whole entry): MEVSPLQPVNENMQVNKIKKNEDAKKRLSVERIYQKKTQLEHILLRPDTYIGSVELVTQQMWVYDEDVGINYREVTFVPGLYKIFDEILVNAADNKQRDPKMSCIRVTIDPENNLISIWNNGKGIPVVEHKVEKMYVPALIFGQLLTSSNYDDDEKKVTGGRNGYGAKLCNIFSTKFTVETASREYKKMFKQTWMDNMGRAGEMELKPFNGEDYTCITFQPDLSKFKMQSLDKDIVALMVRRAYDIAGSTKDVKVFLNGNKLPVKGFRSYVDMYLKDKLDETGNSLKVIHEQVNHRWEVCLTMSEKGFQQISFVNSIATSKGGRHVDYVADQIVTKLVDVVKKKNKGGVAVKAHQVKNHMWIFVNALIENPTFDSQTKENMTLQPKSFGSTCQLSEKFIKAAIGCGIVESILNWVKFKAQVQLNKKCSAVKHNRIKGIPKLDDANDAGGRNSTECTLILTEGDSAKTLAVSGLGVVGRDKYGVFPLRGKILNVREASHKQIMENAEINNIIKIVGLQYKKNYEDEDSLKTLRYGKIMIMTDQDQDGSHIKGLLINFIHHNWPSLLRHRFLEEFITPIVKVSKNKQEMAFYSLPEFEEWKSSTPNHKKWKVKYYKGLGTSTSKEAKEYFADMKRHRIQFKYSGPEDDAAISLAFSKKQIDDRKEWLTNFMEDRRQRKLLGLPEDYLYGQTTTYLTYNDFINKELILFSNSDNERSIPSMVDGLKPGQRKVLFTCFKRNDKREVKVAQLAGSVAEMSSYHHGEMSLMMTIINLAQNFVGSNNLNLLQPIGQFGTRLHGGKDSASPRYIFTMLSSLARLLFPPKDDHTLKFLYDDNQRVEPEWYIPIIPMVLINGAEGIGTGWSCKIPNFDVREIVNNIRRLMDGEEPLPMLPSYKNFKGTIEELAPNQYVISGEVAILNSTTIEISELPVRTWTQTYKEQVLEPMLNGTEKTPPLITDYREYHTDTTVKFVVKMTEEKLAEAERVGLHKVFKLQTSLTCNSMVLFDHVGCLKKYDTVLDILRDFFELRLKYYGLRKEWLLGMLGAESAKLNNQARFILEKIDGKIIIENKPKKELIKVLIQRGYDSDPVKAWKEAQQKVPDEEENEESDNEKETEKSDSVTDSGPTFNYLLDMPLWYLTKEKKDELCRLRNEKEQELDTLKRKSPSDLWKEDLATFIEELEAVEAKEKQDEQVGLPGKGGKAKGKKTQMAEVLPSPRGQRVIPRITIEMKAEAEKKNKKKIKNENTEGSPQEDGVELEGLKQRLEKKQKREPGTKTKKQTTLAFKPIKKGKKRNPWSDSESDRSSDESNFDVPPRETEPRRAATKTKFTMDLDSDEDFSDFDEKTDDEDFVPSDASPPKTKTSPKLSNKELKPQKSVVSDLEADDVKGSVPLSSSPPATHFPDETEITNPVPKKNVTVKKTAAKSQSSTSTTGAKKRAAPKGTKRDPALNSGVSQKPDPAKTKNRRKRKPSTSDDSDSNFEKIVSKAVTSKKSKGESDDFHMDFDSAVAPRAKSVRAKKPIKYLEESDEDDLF

Row | Compound | UBE3A protein from the paternal allele in AS model neurons (western blot) [1] | Snrpn mRNA [2] | inhibition of Top2a [3] | Snord116 mRNA [4] | percent of neurons expressing UBE3A-YFP above threshold [5] [%] | unsilencing of paternal Ube3a-YFP by imaging, in words [5] | UBE3A-YFP protein from the paternal allele (western blot) [6] | unsilencing of paternal Ube3a-YFP with CDK2 knocked down [6] | unsilencing of paternal Ube3a-YFP with CDK5 knocked down [6] | methylation level on histone H3 lysine 79 (H3K79) [7] | Ube3a-ATS mRNA [8] | mRNA of Ube3a-YFP [9] | further results
1 | C[C@H](C(=O)Nc1cc(C2CC2)[nH]n1)c1ccc(N2CCCC2=O)cc1 [PHA533533] | unsilenced paternal UBE3A at levels that approached that of UBE3A levels in DMSO-treated neurons from WT mice | decreased | partially inhibited Top2a | decreased | 63.7±14.3 | effectively unsilenced paternal Ube3a-YFP; also recorded: can unsilence paternal Ube3a-YFP | increased UBE3A-YFP protein to levels approaching that of topotecan; also recorded: can produce UBE3A-YFP | did not unsilence paternal Ube3a-YFP unless neurons were treated | further enhanced | reduced methylation level on histone H3 lysine 79 (H3K79) | significantly decreased; also recorded: downregulates Ube3a-ATS | upregulated | potency (EC50) compared to topotecan, in words ([5]; dose response, normalized fluorescent intensity): slightly lower potency than topotecan
2 | O=C(Cc1ccc2ccccc2c1)Nc1cc(C2CC2)[nH]n1 [PNU0292137] |  |  |  |  |  | could not produce appreciable increases |  |  |  |  |  |  | 
3 | CC(C)N(C[C@H]1O[C@@H](n2cnc3c(N)ncnc32)[C@H](O)[C@@H]1O)[C@H]1C[C@@H](CCc2nc3cc(C(C)(C)C)ccc3[nH]2)C1 [EPZ5676, reference compound] |  |  |  |  |  |  | did not appreciably unsilence paternal Ube3a-YFP |  |  | reduced methylation level on histone H3 lysine 79 (H3K79) |  |  | 
4 | CC[C@@]1(O)C(=O)OCc2c1cc1n(c2=O)Cc2cc3c(CN(C)C)c(O)ccc3nc2-1 [topotecan, reference compound] | unsilenced paternal UBE3A at levels that approached that of UBE3A levels in DMSO-treated neurons from WT mice | decreased |  | decreased | 37.3±3.7 | unsilenced paternal UBE3A-YFP |  | did not unsilence paternal Ube3a-YFP unless neurons were treated | further enhanced |  | significantly decreased | upregulated | LC50 / cytotoxicity compared to topotecan, in words [10]: comparable LC50; unsilencing of paternal Ube3a-YFP with Top1 knocked down ([6]; Top1 shRNA knockdown): occlude unsilencing; also recorded: occluded the ability
5 | C[C@H](C(=O)Nc1cc(C2CC2)[nH]n1)c1ccc(N2CCOC2=O)cc1 [Compound P5-A4, (S)—N-(5-cyclopropyl-1H-pyrazol-3-yl)-2-(4-(2-oxooxazolidin-3-yl)phenyl)propenamide] |  |  |  |  |  |  | did not appreciably unsilence paternal Ube3a-YFP |  |  |  |  |  | 
6 | ICRF-193 [reference compound] |  |  | inhibits the relaxation of catenated kDNA |  |  |  |  |  |  |  |  |  | 
